The record followed here is ChEMBL document CHEMBL1201862, “PubChem BioAssay data set” (2004).

Some test systems named below: IGROV-1; T47D; UACC-62; A498; TK-10; HCT-15; SK-OV-3; MOLT-4; NCI-H23; HOP-62; HT-29; SW-620; 786-0; OVCAR-5; SF-295; OVCAR-8; Malme-3M; SN12C; MDA-N; UACC-257.
What all share (assay): NCI tumour cell line growth inhibition, 48 h

Structures can show the parent of a compound that is named as a salt.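 How tested: cells in 96-well plates exposed to compound for 48 hours at five concentrations. GI50 is the concentration that inhibits growth by half.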 Active and inactive are the calls of the source. No stated cut-off is given here; in the data, active = GI50 up to about 1.1 µM and inactive = higher.

As for `O=C1c2cccc3cccc(c23)C(=O)N1CCCNCCCCNCCCNCCCN1C(=O)c2cccc3cccc(c23)C1=O` [BISNAPHTHALIMIDOPROPYL SPERMIDINE TRIHYDROBROMIDE], the GI50 in the experiment on IGROV-1 is 0.472 µM (active); with T47D it was 1.12 µM (inactive); in the experiment on UACC-62, 0.458 µM (active); with A498, 0.977 µM (active); with TK-10, 2.55 µM (inactive); in the experiment with HCT-15 it was 11.7 µM. Moreover, the GI50 in the experiment on SK-OV-3 is 1.5 µM (inactive); with MOLT-4, 0.0333 µM (active); in the experiment with NCI-H23, 0.35 µM (active); in the experiment on HOP-62, 1.1 µM (active); in the experiment with HT-29, 0.231 µM (active); with SW-620, 0.555 µM (active). Also, the GI50 with 786-0 was 0.175 µM (active); with OVCAR-5, 0.585 µM (active); in the experiment on SF-295, 5.92 µM (inactive); in the experiment on OVCAR-8 it was 0.748 µM (active); with Malme-3M, 0.513 µM (active); in the experiment with SN12C it was 0.521 µM (active). The figures for the GI50 in the experiment with MDA-N and in the experiment on UACC-257 were 0.792 µM (active) and 1.56 µM (inactive), respectively.

For the molecule `O=c1[nH]c2ccc(Cl)cc2c2oc(-c3ccccc3)nc12`, the GI50 with IGROV-1 is 29.1 µM (inactive); in the experiment with T47D, 19.2 µM (inactive); in the experiment on UACC-62, 70.5 µM (inactive); in the experiment on A498, 21.3 µM (inactive); in the experiment on TK-10, 35.5 µM (inactive); in the experiment with HCT-15, 51.6 µM. For the same molecule, the GI50 with SK-OV-3 is 24.2 µM (inactive); in the experiment with MOLT-4, 76.2 µM (inactive); in the experiment on NCI-H23, 25.2 µM (inactive); in the experiment with HOP-62, 20.7 µM (inactive); in the experiment on HT-29, 83.9 µM (inactive); in the experiment on SW-620, 44.6 µM (inactive). In addition, the GI50 in the experiment with 786-0 is 16 µM (inactive); in the experiment on OVCAR-5, 52.1 µM (inactive); with SF-295 it was 21.6 µM (inactive); with OVCAR-8, 5.62 µM (inactive); in the experiment with Malme-3M, 29.3 µM (inactive); with SN12C, 21.7 µM (inactive). In addition, the figures for the GI50 in the experiment on MDA-N and in the experiment on UACC-257 were 45.7 µM (inactive) and 52.7 µM (inactive), respectively.

`C=C1CC[C@@]2(C)[C@@H]([C@@H]1C)[C@H]1CC[C@@H]3[C@@]4(C)CC[C@H](O)C(C)(C)[C@@H]4CC[C@@]3(C)[C@]1(C)C[C@@H]2O`: the GI50 was 2 µM (inactive) in the experiment on IGROV-1; 2.55 µM (inactive) with T47D; 7.45 µM (inactive) in the experiment on UACC-62; 2.16 µM (inactive) in the experiment on A498; 5.62 µM (inactive) in the experiment on TK-10; 3.24 µM in the experiment with HCT-15. Besides, the GI50 is 3.79 µM (inactive) in the experiment on SK-OV-3; 3.22 µM (inactive) in the experiment with MOLT-4; 2.48 µM (inactive) with NCI-H23; 2.24 µM (inactive) with HOP-62; 3.9 µM (inactive) in the experiment on HT-29; 4.03 µM (inactive) in the experiment on SW-620. The GI50 in the experiment with 786-0 is 2.7 µM (inactive); in the experiment on OVCAR-5, 4.25 µM (inactive); with SF-295 it was 3.49 µM (inactive); in the experiment on OVCAR-8, 1.85 µM (inactive); with Malme-3M, 3.25 µM (inactive); with SN12C it was 2.52 µM (inactive). For the same molecule, the GI50 in the experiment on MDA-N is 8.53 µM (inactive); with UACC-257, 8.07 µM (inactive).

Regarding `CC#CC(=O)SCCNC(=O)CC`, the GI50 with IGROV-1 was > 10 µM (inactive); in the experiment on T47D it was > 6.5 µM (inactive); in the experiment with UACC-62, > 9.44 µM (inactive); in the experiment with A498 it was > 10 µM (inactive); in the experiment with TK-10 it was > 10 µM (inactive); in the experiment on HCT-15, above 10 µM. In addition, the GI50 in the experiment on SK-OV-3 is > 10 µM (inactive); in the experiment with MOLT-4 it was 1.48 µM (inactive); in the experiment with NCI-H23, > 10 µM (inactive); in the experiment on HOP-62, > 10 µM (inactive); with HT-29 it was > 10 µM (inactive); in the experiment with SW-620, 3.01 µM (inactive). The GI50 in the experiment on 786-0 was > 6.7 µM (inactive); with OVCAR-5, > 10 µM (inactive); in the experiment on SF-295 it was > 10 µM (inactive); in the experiment on OVCAR-8, > 10 µM (inactive); in the experiment with Malme-3M it was > 10 µM (inactive); in the experiment on SN12C it was > 10 µM (inactive). The GI50 was 6.07 µM (inactive) in the experiment on MDA-N and > 10 µM (inactive) in the experiment with UACC-257.

On to `COc1ccc(C(=O)Cn2c(C(C)=O)nc3ccccc32)cc1`, for which the GI50 with IGROV-1 is 6.73 µM (inactive); with T47D it was 5.28 µM (inactive); in the experiment with UACC-62, 6.89 µM (inactive); in the experiment on A498 it was 67 µM (inactive); in the experiment on TK-10, > 76.6 µM (inactive); in the experiment on HCT-15, 6.35 µM. Further, the GI50 is 14.7 µM (inactive) in the experiment on SK-OV-3; 4.98 µM (inactive) with MOLT-4; 13.2 µM (inactive) in the experiment on NCI-H23; 12.1 µM (inactive) with HOP-62; 23.4 µM (inactive) in the experiment on HT-29; 5.56 µM (inactive) with SW-620. In addition, the GI50 in the experiment on 786-0 is 6.59 µM (inactive); in the experiment on OVCAR-5, 44.4 µM (inactive); in the experiment with SF-295 it was 13.1 µM (inactive); in the experiment with OVCAR-8, 3.8 µM (inactive); in the experiment on Malme-3M, 41 µM (inactive); in the experiment on SN12C, 16.4 µM (inactive). Also, the results for the GI50 in the experiment with MDA-N and in the experiment with UACC-257 were 10.7 µM (inactive) and 30.4 µM (inactive), respectively.

In the case of `CCOC(=O)NC(Nc1cccc(C(F)(F)F)c1)(C(F)(F)F)C(F)(F)F`, the GI50 was > 100 µM (inactive) in the experiment with IGROV-1; > 100 µM (inactive) in the experiment on T47D; > 100 µM (inactive) with UACC-62; > 100 µM (inactive) in the experiment with A498; > 100 µM (inactive) in the experiment on TK-10; above 100 µM with HCT-15. Besides, the GI50 with SK-OV-3, with MOLT-4, with NCI-H23, in the experiment on HOP-62, in the experiment with HT-29 and in the experiment on SW-620 was > 100 µM (inactive) throughout. Besides, the GI50 in the experiment on 786-0, with OVCAR-5, in the experiment on SF-295, in the experiment on OVCAR-8, in the experiment with Malme-3M and in the experiment with SN12C was > 100 µM (inactive) throughout. Besides, the GI50 in the experiment with MDA-N and in the experiment with UACC-257 was > 100 µM (inactive) in each case.

Turning to `Cc1cc(N)c2ccccc2[n+]1CCCCCCCCCC[n+]1c(C)cc(N)c2ccccc21` [DEQUALINIUM CHLORIDE], the GI50 is 1.72 µM (inactive) with IGROV-1; 0.948 µM (active) in the experiment on T47D; 1.82 µM (inactive) with UACC-62; 5.19 µM (inactive) with A498; 4.09 µM (inactive) with TK-10; 4.31 µM in the experiment with HCT-15. For the same molecule, the GI50 is 2.39 µM (inactive) with SK-OV-3; 0.964 µM (active) in the experiment with MOLT-4; 0.41 µM (active) with NCI-H23; 1.87 µM (inactive) in the experiment on HOP-62; 1 µM (active) in the experiment on HT-29; 2.22 µM (inactive) with SW-620. Further, the GI50 was 2.69 µM (inactive) in the experiment on 786-0; 2.34 µM (inactive) with OVCAR-5; 1.28 µM (inactive) in the experiment with SF-295; 1.9 µM (inactive) in the experiment with OVCAR-8; 3.05 µM (inactive) in the experiment on Malme-3M; 1.45 µM (inactive) in the experiment on SN12C. Further, the figures for the GI50 in the experiment on MDA-N and with UACC-257 were 1.33 µM (inactive) and 2.91 µM (inactive), respectively.
